Experimental data as given in patent EP0450761A1, “Spirocyclic oxytocin antagonists” (MERCK & CO. INC., priority 1990, dated 1991).

What was measured:
[1] = target: T1, AVP-V₁ sites (Rattus norvegicus, UniProt P30560); assay: [³H]AVP radioligand binding, crude membrane preparation of male rat liver (AVP-V₁ sites); conditions: for inhibition at 10 µM: 10 µM test compound, % of specific [³H]AVP binding inhibited (liver), read-out: Inhibition Vasopressin V1 % inhibition @ 10; for IC50: 1 nM [³H]AVP, rat liver membranes, 30 min at 30°C, read-out: Inhibition Vasopressin V1 IC50
T1 construct: a crude membrane preparation of male rat liver (AVP-V₁ sites); from tissue; host or cells: male rat liver, crude membrane preparation
Source text: (§1) *Inhibition is expressed either as IC₅₀ in µM, or as % inhibition @ a specified concentration of the test compound (µM). The IC₅₀ is the concentration of the text compound which inhibits specific binding by 50%. The % inhibition at a specified concentration of the test compound is that percentage of specific binding which is inhibited by said concentration of said test compound.

[2] = target: T2, AVP-V₂ sites (Rattus norvegicus, UniProt Q00788); assay: [³H]AVP radioligand binding, crude membrane preparation of male rat kidney medulla (AVP-V₂ sites); conditions: for inhibition at 10 µM: 10 µM test compound, % of specific [³H]AVP binding inhibited (kidney), read-out: Inhibition Vasopressin V2 % inhibition @ 10
T2 construct: male rat liver (AVP-V₁ sites) or kidney medulla (AVP-V₂ sites); from tissue; host or cells: male rat kidney medulla, crude membrane preparation
Source text: as §1

[3] = target: T3, uterine OT receptors (Rattus norvegicus, UniProt P70536); assay: [³H]OT radioligand binding to uterine OT receptors, crude membrane preparation of uteri from DES-treated rats
T3 construct: a crude membrane preparation of uteri; from tissue; host or cells: uterus of DES-treated rats, crude membrane preparation
T3 sequence (P70536 1-388): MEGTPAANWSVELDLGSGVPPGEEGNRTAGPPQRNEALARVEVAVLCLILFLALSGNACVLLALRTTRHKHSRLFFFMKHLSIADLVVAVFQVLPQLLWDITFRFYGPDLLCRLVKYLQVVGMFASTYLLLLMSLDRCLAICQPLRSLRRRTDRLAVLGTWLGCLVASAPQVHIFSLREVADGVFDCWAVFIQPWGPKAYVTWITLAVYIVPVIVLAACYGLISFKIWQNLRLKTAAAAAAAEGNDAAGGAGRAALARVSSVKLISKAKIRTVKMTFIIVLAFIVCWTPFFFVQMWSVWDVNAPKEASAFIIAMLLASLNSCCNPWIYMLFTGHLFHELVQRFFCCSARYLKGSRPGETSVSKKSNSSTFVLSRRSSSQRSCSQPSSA
Experimental: Competition studies were conducted at equilibrium (60 min; 22°C) using 1 nM [³H]OT in the following assay buffer: 50 mM Tris-HCl, 5 mM MgCl₂, and 0.1% BSA, pH 7.4.
as §1

T2 sequence (Q00788 whole entry): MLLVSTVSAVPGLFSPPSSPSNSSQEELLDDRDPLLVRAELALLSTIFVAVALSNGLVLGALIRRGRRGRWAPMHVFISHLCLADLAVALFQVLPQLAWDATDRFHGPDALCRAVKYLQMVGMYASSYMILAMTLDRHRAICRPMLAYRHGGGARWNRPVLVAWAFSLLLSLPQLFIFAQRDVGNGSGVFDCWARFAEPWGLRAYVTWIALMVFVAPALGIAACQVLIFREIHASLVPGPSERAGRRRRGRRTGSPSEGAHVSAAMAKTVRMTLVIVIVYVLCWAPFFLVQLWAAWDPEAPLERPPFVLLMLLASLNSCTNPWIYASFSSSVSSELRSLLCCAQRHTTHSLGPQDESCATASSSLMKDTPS
T1 sequence (P30560 whole entry): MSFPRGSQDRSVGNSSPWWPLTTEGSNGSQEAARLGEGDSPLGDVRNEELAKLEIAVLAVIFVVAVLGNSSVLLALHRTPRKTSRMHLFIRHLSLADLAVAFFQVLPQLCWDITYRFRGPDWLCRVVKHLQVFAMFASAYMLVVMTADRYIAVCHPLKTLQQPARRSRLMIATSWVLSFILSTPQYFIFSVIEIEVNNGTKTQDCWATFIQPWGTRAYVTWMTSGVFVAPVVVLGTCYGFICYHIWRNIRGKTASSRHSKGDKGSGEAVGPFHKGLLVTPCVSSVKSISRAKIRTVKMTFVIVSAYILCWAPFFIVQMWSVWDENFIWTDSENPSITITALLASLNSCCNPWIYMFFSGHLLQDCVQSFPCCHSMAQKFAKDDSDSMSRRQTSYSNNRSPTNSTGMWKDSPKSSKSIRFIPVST

Compound | inhibition at 10 µM [1] [%] | inhibition at 10 µM [2] [%] | IC50 [3] [nM] | other results
CC1(C)[C@@H]2CC[C@@]1(CS(=O)(=O)N1CCC3(C=Cc4ccccc43)CC1)C(=NO)C2 [Example 27] | 52 | 21 | 490 | –
CC1(C)[C@@H]2CC[C@@]1(CS(=O)(=O)N1CCC3(C=Cc4ccccc43)CC1)C(O)(c1ccccc1)C2 (stereo partly drawn) [Example 11] | – | – | 490 | –
CC1(C)[C@@H]2CC[C@@]1(CS(=O)(=O)N1CCC3(C=Cc4ccccc43)CC1)[C@@](O)(CC(=O)O)C2 [Example 20, (1S(1.ALPHA.,2.ALPHA.,4.ALPHA.))-2-HYDROXY-7,7-DIMETHYL-1-((SPIRO(1H-INDENE-1,4′-PIPERIDIN)-1′-YLSULFONYL)METHYL)-BICYCLO-(2.2.1)HEPTANE-2-ACETIC ACID] | – | – | 570 | IC50 [1]: 89000 nM; IC50 ([2]; 2 nM [³H]AVP, rat kidney medulla membranes, 30 min at 30°C, read-out: Inhibition Vasopressin V2 IC50): 83000 nM
[³H]OT [reference compound] | – | – | – | Kd ([3]; radioligand, uterus, read-out: Kd values obtained from saturation binding assay): 0.7 nM
CC1(C)[C@@H]2CC[C@@]1(CS(=O)(=O)N1CCC3(C=Cc4ccccc43)CC1)[C@](C)(O)C2 [Example 13, EXO-(1S)-1′-(((2-HYDROXY-2,7,7-TRIMETHYLBICYCLO-(2.2.1)HEPT-1-YL)METHYL)SULFONYL)SPIRO(1H-INDENE-1,4′-PIPERIDINE)] | 45 | 5 | – | –
CCC1(O)CC2CC[C@]1(CS(=O)(=O)N1CCC3(C=Cc4ccccc43)CC1)C2(C)C (stereo partly drawn) [Example 15] | – | – | 470 | IC50 [1]: ~9000 nM
CC1(C)[C@H]2CC[C@]1(CS(=O)(=O)N1CCC3(C=Cc4ccccc43)CC1)C(=O)C2 [Example 7] | 0 | 6 | – | –
CC1(C)[C@@H]2CC[C@@]1(CS(=O)(=O)N1CCC3(C=Cc4ccccc43)CC1)C(=O)C2 [Example 6] | 2 | 3 | – | –
COC(=O)C[C@@]1(O)C[C@H]2CC[C@]1(CS(=O)(=O)N1CCC3(C=Cc4ccccc43)CC1)C2(C)C [Example 19, (1S(1.ALPHA.,2.ALPHA.,4.ALPHA.))-2-HYDROXY-7,7-DIMETHYL-1-((SPIRO(1H-INDENE-1,4′-PIPERIDIN)-1′-YLSULFONYL)METHYL)BICYCLO(2.2.1)HEPTANE-2-ACETIC ACID METHYL ESTER] | 54 | 20 | – | –
